Measured values reported in PubChem BioAssay (NCI).
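Protocol summary: plate cells (96-well), add compound at 5 concentrations, incubate 48 h, interpolate endpoints linearly. Here, GI50 denotes the concentration required for 50% inhibition of growth. At the TGI there is no net growth.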

What was measured:
Test in all cases: growth of human tumour cells (NCI), 48 h
786-0 renal = tested on: 786-0 renal
A498 renal = tested on: A498 renal
A549 NSCLC = tested on: A549 NSCLC
ACHN renal = tested on: ACHN renal
BT-549 breast = tested on: BT-549 breast
CAKI-1 renal = tested on: CAKI-1 renal
CCRF-CEM leukemia = tested on: CCRF-CEM leukemia
COLO 205 colon = tested on: COLO 205 colon
DU-145 prostate = tested on: DU-145 prostate
EKVX NSCLC = tested on: EKVX NSCLC
HCC-2998 colon = tested on: HCC-2998 colon
HCT-116 colon = tested on: HCT-116 colon
HCT-15 colon = tested on: HCT-15 colon
HL-60(TB) leukemia = tested on: HL-60(TB) leukemia
HOP-62 NSCLC = tested on: HOP-62 NSCLC
HOP-92 NSCLC = tested on: HOP-92 NSCLC
HS 578T breast = tested on: HS 578T breast
HT29 colon = tested on: HT29 colon
IGROV1 ovarian = tested on: IGROV1 ovarian
K-562 leukemia = tested on: K-562 leukemia
KM12 colon = tested on: KM12 colon
LOX IMVI melanoma = tested on: LOX IMVI melanoma
MALME-3M melanoma = tested on: MALME-3M melanoma
MCF7 breast = tested on: MCF7 breast
MDA-MB-231 breast = tested on: MDA-MB-231 breast
MDA-MB-435 = tested on: MDA-MB-435
MOLT-4 leukemia = tested on: MOLT-4 leukemia
NCI-H226 lung = tested on: NCI-H226 lung
NCI-H23 lung = tested on: NCI-H23 lung
NCI-H460 lung = tested on: NCI-H460 lung
NCI-H522 lung = tested on: NCI-H522 lung
NCI/ADR-RES ovarian = tested on: NCI/ADR-RES ovarian
OVCAR-3 ovarian = tested on: OVCAR-3 ovarian
OVCAR-4 ovarian = tested on: OVCAR-4 ovarian
OVCAR-5 ovarian = tested on: OVCAR-5 ovarian
OVCAR-8 ovarian = tested on: OVCAR-8 ovarian
PC-3 prostate = tested on: PC-3 prostate
RPMI-8226 leukemia = tested on: RPMI-8226 leukemia
RXF 393 renal = tested on: RXF 393 renal
SF-268 CNS = tested on: SF-268 CNS
SF-295 CNS = tested on: SF-295 CNS
SF-539 CNS = tested on: SF-539 CNS
SK-MEL-2 melanoma = tested on: SK-MEL-2 melanoma
SK-MEL-28 melanoma = tested on: SK-MEL-28 melanoma
SK-MEL-5 melanoma = tested on: SK-MEL-5 melanoma
SK-OV-3 ovarian = tested on: SK-OV-3 ovarian
SN12C renal = tested on: SN12C renal
SNB-19 CNS = tested on: SNB-19 CNS
SNB-75 CNS = tested on: SNB-75 CNS
SR leukemia = tested on: SR leukemia
SW-620 colon = tested on: SW-620 colon
T-47D breast = tested on: T-47D breast
TK-10 renal = tested on: TK-10 renal
U251 CNS = tested on: U251 CNS
UACC-257 melanoma = tested on: UACC-257 melanoma
UACC-62 melanoma = tested on: UACC-62 melanoma
UO-31 renal = tested on: UO-31 renal

## CC1=C2C(=C[C@@](C)(COC(=O)c3ccc(S(=O)(=O)F)cc3)[C@@H]2O)C(=O)[C@](C)(O)C12CC2
786-0 renal
  GI50: 2150 nM
  TGI: 7930 nM
A498 renal
  GI50: 2270 nM
  TGI: 5620 nM
A549 NSCLC
  GI50: 2870 nM
  TGI: > 26100 nM
ACHN renal
  GI50: 541 nM
  TGI: 1730 nM
BT-549 breast
  GI50: 1220 nM
  TGI: 2840 nM
CAKI-1 renal
  GI50: 631 nM
  TGI: 2450 nM
CCRF-CEM leukemia
  GI50: 3210 nM
  TGI: > 28000 nM
COLO 205 colon
  GI50: 951 nM
  TGI: 2720 nM
DU-145 prostate
  GI50: 522 nM
  TGI: 3040 nM
EKVX NSCLC
  GI50: 2420 nM
  TGI: 6470 nM
HCC-2998 colon
  GI50: 945 nM
  TGI: 2710 nM
HCT-116 colon
  GI50: 587 nM
  TGI: 2500 nM
HCT-15 colon
  GI50: 424 nM
  TGI: 2240 nM
HL-60(TB) leukemia
  GI50: 566 nM
  TGI: 5910 nM
HOP-62 NSCLC
  GI50: 2550 nM
  TGI: 13800 nM
HOP-92 NSCLC
  GI50: 2170 nM
  TGI: 6010 nM
HS 578T breast
  GI50: 2420 nM
  TGI: 9570 nM
HT29 colon
  GI50: 498 nM
  TGI: 2670 nM
IGROV1 ovarian
  GI50: 941 nM
  TGI: 5060 nM
K-562 leukemia
  GI50: 3410 nM
  TGI: > 100000 nM
KM12 colon
  GI50: 4280 nM
  TGI: 24900 nM
LOX IMVI melanoma
  GI50: 588 nM
  TGI: 2220 nM
MALME-3M melanoma
  GI50: 785 nM
  TGI: 2330 nM
MCF7 breast
  GI50: 596 nM
  TGI: 9310 nM
MDA-MB-231 breast
  GI50: 1350 nM
  TGI: 6620 nM
MDA-MB-435
  GI50: 1170 nM
  TGI: 2980 nM
MOLT-4 leukemia
  GI50: 2020 nM
  TGI: > 25800 nM
NCI-H226 lung
  GI50: 2300 nM
  TGI: 9140 nM
NCI-H23 lung
  GI50: 1000 nM
  TGI: 3620 nM
NCI-H460 lung
  GI50: 614 nM
  TGI: 1870 nM
NCI-H522 lung
  GI50: 745 nM
  TGI: 2530 nM
NCI/ADR-RES ovarian
  GI50: 815 nM
  TGI: 3970 nM
OVCAR-3 ovarian
  GI50: 906 nM
  TGI: 3800 nM
OVCAR-4 ovarian
  GI50: 1690 nM
  TGI: 4390 nM
OVCAR-5 ovarian
  GI50: 982 nM
  TGI: 5120 nM
OVCAR-8 ovarian
  GI50: 903 nM
  TGI: 3620 nM
PC-3 prostate
  GI50: 1710 nM
  TGI: > 29100 nM
RPMI-8226 leukemia
  GI50: 24500 nM
  TGI: > 74200 nM
RXF 393 renal
  GI50: 522 nM
  TGI: 1230 nM
SF-268 CNS
  GI50: 1060 nM
  TGI: 6130 nM
SF-295 CNS
  GI50: 2140 nM
  TGI: 8200 nM
SF-539 CNS
  GI50: 1860 nM
  TGI: 3710 nM
SK-MEL-2 melanoma
  GI50: 613 nM
  TGI: 1290 nM
SK-MEL-28 melanoma
  GI50: 556 nM
  TGI: 2050 nM
SK-MEL-5 melanoma
  GI50: 1490 nM
  TGI: 3510 nM
SK-OV-3 ovarian
  GI50: 2520 nM
  TGI: 7890 nM
SN12C renal
  GI50: 1200 nM
  TGI: 5460 nM
SNB-19 CNS
  GI50: 1820 nM
  TGI: 10400 nM
SNB-75 CNS
  GI50: 1490 nM
  TGI: 3070 nM
SR leukemia
  GI50: 1360 nM
  TGI: > 22600 nM
SW-620 colon
  GI50: 1970 nM
  TGI: 8790 nM
T-47D breast
  GI50: 2060 nM
  TGI: 18800 nM
TK-10 renal
  GI50: 2510 nM
  TGI: 6470 nM
U251 CNS
  GI50: 1400 nM
  TGI: > 25100 nM
UACC-257 melanoma
  GI50: 2050 nM
  TGI: 4780 nM
UACC-62 melanoma
  GI50: 894 nM
  TGI: 2560 nM
UO-31 renal
  GI50: 1610 nM
  TGI: 3090 nM
